PMC9434621 (ACS Omega, 2022)

Legend:
[1] = biological target: T1, bovine erythrocyte CA (Bos taurus, UniProt P00921); conditions: test concentration not given; Figure 2
[2] = biological target: T1, bovine erythrocyte CA; conditions: sample 0.5 mM in DMSO, 15 min incubation with enzyme at room temperature
[3] = biological target: T1, bovine erythrocyte CA; assay: biochemical

T1 sequence (P00921 whole entry): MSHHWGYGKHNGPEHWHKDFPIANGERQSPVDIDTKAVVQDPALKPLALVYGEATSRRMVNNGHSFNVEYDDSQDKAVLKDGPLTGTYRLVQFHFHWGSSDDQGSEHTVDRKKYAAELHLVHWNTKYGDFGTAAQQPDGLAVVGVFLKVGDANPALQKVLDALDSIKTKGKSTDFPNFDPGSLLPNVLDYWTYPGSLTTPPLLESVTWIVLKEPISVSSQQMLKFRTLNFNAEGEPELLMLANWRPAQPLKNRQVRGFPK

## CCCC1=NOC(=O)/C1=C/c1ccc(OC)cc1O [AC1, (E)-4-(2-Hydroxy-4-methoxybenzylidene)-3-propylisoxazol-5(4H)-one]
[1]
  % inhibition: 58.4%

## CCCC1=NOC(=O)/C1=C/c1cccs1 [AC2, (E)-3-Propyl-4-(thiophen-2-ylmethylene) Isoxazol-5(4H)-one]
[1]
  % inhibition: 79.5%
[2]
  enhancement of fluorescence signal after complex formation with CA: significant fluorescence enhancement
[3]
  IC50: 112 ± 1.6 µM

## CCCC1=NOC(=O)/C1=C/c1ccc(O)cc1 [AC4, (E)-4-(4-Hydroxybenzylidene)-3-propylisoxazol-5(4H)-one]
[1]
  % inhibition: 50.5%

## (E)-4-(2-Methoxybenzylidene)-3-propylisoxazol-5(4H)-one [AC3]
[1]
  % inhibition: 68.7%
[2]
  enhancement of fluorescence signal after complex formation with CA: significant fluorescence enhancement
